Source: ChEMBL document CHEMBL4219064, “Identification of novel quinazolinedione derivatives as RORγt inverse agonist” (Bioorg Med Chem, 2018)
Converted amounts (≈) assume the structure as drawn.

How the values were obtained:
[1] = Kinetic solubility of the compound in second fluid of disintegration test of the Japanese Pharmacopoeia at pH 6.8 by HPLC analysis
[2] = Lipophilicity, log D of the compound at pH 7.4; assay type: physicochemical; conditions: buffer
[3] = Clearance in rat at 1 mg/kg, po or 0.1 mg/kg, iv; assay type: ADME, organism-based; conditions: in vivo
[4] = Oral bioavailability in rat at 1 mg/kg; assay type: ADME, organism-based; conditions: in vivo
[5] = AUC in rat at 1 mg/kg, po; assay type: ADME, organism-based; conditions: in vivo
[6] = target: T1, Nuclear receptor ROR-gamma (Homo sapiens, UniProt P51449); assay: Displacement of BODIPY-labeled-(R)-N-(2-(3,5-difluoro-4-(trimethylsilyl)phenylamino)-1-(4-(methoxymethyl)phenyl)-2-oxoethyl)-5-(2-((1-(difluoroboryl)-3,5-dimethyl-1H-pyrrol-2-yl)methylene)-2H-pyrrol-5-yl)pentanamide from human His-tagged RORgammat after 20 mins by TR-FRET assay
T1 sequence (P51449 whole entry): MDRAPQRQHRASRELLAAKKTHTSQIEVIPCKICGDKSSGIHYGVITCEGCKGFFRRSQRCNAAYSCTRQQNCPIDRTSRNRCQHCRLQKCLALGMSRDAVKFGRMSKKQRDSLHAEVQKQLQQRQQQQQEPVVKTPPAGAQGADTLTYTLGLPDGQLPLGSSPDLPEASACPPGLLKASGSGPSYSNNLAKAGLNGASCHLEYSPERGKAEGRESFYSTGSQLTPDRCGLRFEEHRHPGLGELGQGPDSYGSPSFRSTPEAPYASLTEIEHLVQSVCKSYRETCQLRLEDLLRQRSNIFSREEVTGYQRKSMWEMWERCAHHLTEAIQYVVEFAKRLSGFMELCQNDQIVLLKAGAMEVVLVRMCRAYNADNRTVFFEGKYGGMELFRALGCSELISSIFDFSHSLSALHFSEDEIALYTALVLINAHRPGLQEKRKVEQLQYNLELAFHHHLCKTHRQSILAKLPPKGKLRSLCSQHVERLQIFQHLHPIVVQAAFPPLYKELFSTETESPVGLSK

[7] = target: T1, Nuclear receptor ROR-gamma; assay: Inverse agonist activity at RORgammat (unknown origin) expressed in human Jurkat cells assessed as inhibition of transcriptional activity after overnight incubation by human IL-17 ROR response element driven-bright-glo luciferase reporter gene assay; assay type: cell-based
Rattus norvegicus = assay: In vivo inverse agonist activity at RORgammat in po dosed Lewis rat experimental autoimmune encephalomyelitis model assessed as inhibition of IL-17A mRNA levels in popliteal lymph nodes administered twice daily for 5 days by qRT-PCR analysis; assay type: functional; conditions: 120 h, read-out: MED
tissue or blood = conditions: Rattus norvegicus, Lewis
Description: Inverse agonist activity at RORgammat in Lewis rat whole blood assessed as inhibition of IL-17A production incubated for 1 hr followed by PMA/ionomycin stimulation measured after 24 hrs by ELISA

## CCn1c2ccccc2c2cc(NC(=O)CC(C)CC(=O)Nc3ccc(C#N)c(Cl)c3)ccc21 (racemic)
[1]
  solubility kinetic: 0.15 µg/mL (≈ 0.317 µM)
[2]
  logD: 3.76

## CCN1C(=O)COc2cc(NC(=O)CC(C)CC(=O)Nc3ccc(C#N)c(Cl)c3)ccc21 (racemic)
[1]
  solubility kinetic: 12 µg/mL (≈ 26.4 µM)

## CCC1Oc2cc(NC(=O)CC(C)CC(=O)Nc3ccc(C#N)c(Cl)c3)ccc2N(CC)C1=O (racemic)
[1]
  solubility kinetic: 5.6 µg/mL (≈ 11.6 µM)

## CCn1c(=O)c2cc(NC(=O)CC(C)CC(=O)Nc3ccc(C#N)c(Cl)c3)ccc2n(CC2CC2)c1=O (racemic)
[3]
  clearance: 28.4 mL/min/kg
[4]
  bioavailability: 5.5%
[5]
  AUC: 33 ng·h/mL

## CCN1C(=O)C(C)Oc2cc(NC(=O)CC(C)CC(=O)Nc3ccc(C#N)c(Cl)c3)ccc21 (racemic)
[1]
  solubility kinetic: 23 µg/mL (≈ 49 µM)
[2]
  logD: 2.66

## CCn1c2ccccc2c2cc(NC(=O)CC(C)CC(=O)Nc3ccccc3C#N)ccc21 (racemic)
[6]
  IC50: > 10 µM
[7]
  IC50: > 30 µM

## CCn1c(=O)c2cc(NC(=O)CC(C)CC(=O)Nc3ccc(C#N)c(Cl)c3)ccc2n(CC)c1=O (racemic)
[3]
  clearance: 26.8 mL/min/kg
[1]
  solubility kinetic: 42 µg/mL (≈ 84.7 µM)
[4]
  bioavailability: 6.2%
[5]
  AUC: 39 ng·h/mL
[2]
  logD: 2.99

## CCn1c(=O)n(CC2CC2)c(=O)c2cc(NC(=O)CC(C)CC(=O)Nc3ccc(C#N)c(Cl)c3)ccc21 (racemic)
[3]
  clearance: 44 mL/min/kg
[4]
  bioavailability: 2.7%
[5]
  AUC: 10 ng·h/mL

## CC(CC(=O)Nc1ccc(C#N)cc1)CC(=O)Nc1ccc2[nH]c3c(c2c1)CCCC3 (racemic)
[1]
  solubility kinetic: 0.19 µg/mL (≈ 0.458 µM)

## CCn1c2c(c3cc(NC(=O)CC(C)CC(=O)Nc4ccc(C#N)cc4)ccc31)CCCC2 (racemic)
[1]
  solubility kinetic: 0.06 µg/mL (≈ 0.136 µM)

## CCn1c(=O)oc2cc(NC(=O)CC(C)CC(=O)Nc3ccc(C#N)c(Cl)c3)ccc21 (racemic)
[1]
  solubility kinetic: 0.9 µg/mL (≈ 2.04 µM)

## CCn1ccc2cc(NC(=O)CC(C)CC(=O)Nc3ccc(C#N)c(Cl)c3)ccc21 (racemic)
[1]
  solubility kinetic: 0.1 µg/mL (≈ 0.236 µM)

## CC(CC(=O)Nc1ccc(C#N)c(Cl)c1)CC(=O)Nc1ccc2c(c1)c(=O)n(CC1CC1)c(=O)n2CC1CC1 (racemic)
Rattus norvegicus
  minimal effective dose: 100 mg/kg
[3]
  clearance: 11.2 mL/min/kg
[4]
  bioavailability: 7.1%
[5]
  AUC: 106 ng·h/mL
Tissue or blood
  IC50: 0.057 µM
